Reference: publication PMC5597121, “The human bitter taste receptor T2R38 is broadly tuned for bacterial compounds” (PLoS ONE, 2017)
Where “and” joins values, the source holds several entries; their conditions need not be identical. Equal values may be shown once. Entries after “also recorded” stand apart in the source; their conditions may differ. Read-outs that look alike come from different tables or passages of the source.

Key:
[1] = system: mock transfected cells (empty vector); assay: Single cell calcium imaging, control: mock transfected (empty vector) Peakrapid cells; format: cell-based, human
Protocol: (§1) The Peakrapid cell line expressing stably a chimeric Gα16gustducin44 G protein [21] was used. 40 000 cells were seeded in each well of a black/clear poly-D-lysine cellware pre-coated 96-well plate (Biocoat®, Becton-Dickinson, Erembodegem, Belgium) and transiently transfected with 50 ng of plasmid DNA containing the receptor sequence or not (empty vector) and with 50 ng of chaperone protein RTP4 per well. Forty hours after transfection, cells were incubated with the calcium-sensitive dye Fluo4 (Life Technologies, Oregon, USA) solubilized at 10 μg/ml in a buffer containing EMEM (150 mM NaCl, 5 mM KCl, 2 mM CaCl2, 1.2 mM MgCl2, 10 mM glucose), 10 mM HEPES, 0.01% (v/v) Pluronic F127, 0.1% (w/v) bovine serum albumin. After 1 h incubation at 37°C, cells were rinsed twice with the same buffer without Fluo4 and left in 50 μl buffer (prior ligand injection). Measurement were performed on a platform based on a motorized Axiobserver Z1 fluorescence microscope piloted by a Axiovision software (Zeiss, Jena, Germany) as described previously. For each selected well, images were taken 1 per second, during 30 seconds. 50 μl of the buffer containing the ligand twice concentrated was injected on the 2nd second of the time lapse record.
(§2) After time lapse record, the number of responding cells in each injected well was determined using ImageJ 1.34 (Rasband, W.S., ImageJ, National Institutes of Health, Bethesda, Maryland, USA, http://rsb.info.nih.gov/ij/1997-2004), and expressed as the percentage of the surface of a microscope field covered by activated cells with respect to the total surface of the field covered by confluent cells. Automated determination of the surface occupied by responding cells is easier to perform than a cell counting. The resulting percentage of positive surface provided a convenient estimation of the percentage of responding cells, as observed by comparing the percentage of positive surface and percentage of responsive cells determined by direct counting, in the same experiment. In agreement with the literature, the percentage of responding cells was proportional to the agonist concentration. During experiment in each plate, at least 2 wells were tested with phenylthiocarbamide (PTC) at 0.1 mM, which is one of the best characterized agonist of T2R38 in the literature. The activation of T2R38 by PTC allows normalization of the result of other tested molecules. The results were thus expressed as the percentage of PTC activation. In scaling calcium imaging assays using this latter receptor, concentration-responses curves were performed and data were fitted to a four parameter logistic equation: y=min+ (max− min)/1+10 ^(logEC50−x)nH . Min and max are the minimum and the maximum values of the percentage of cell-activated surface respectively, y is the percentage of cell-activated surface at the x concentration and nH is the Hill coefficient.

T2R38 = target: T1, T2R38 (Homo sapiens, UniProt P59533, A49P/I296V); assay: Single cell calcium imaging, Peakrapid cells (Gα16gustducin44) transiently transfected with T2R38; format: cell-based; settings: for EC50: concentration-response curve, read-out: EC50; for specific activation of T2R38: ethanol-solubilized
T1 construct: leader: first 45 amino acids of rat somatostatin receptor subtype 3 (SSTR3) (N); expressed in transfected cells; host or cells: Peakrapid cells (HEK293 derivative, ATCC CRL-2828) stably expressing Galpha16gustducin44, co-transfected with human RTP4
T1 sequence (P59533 1-333 A49P/I296V): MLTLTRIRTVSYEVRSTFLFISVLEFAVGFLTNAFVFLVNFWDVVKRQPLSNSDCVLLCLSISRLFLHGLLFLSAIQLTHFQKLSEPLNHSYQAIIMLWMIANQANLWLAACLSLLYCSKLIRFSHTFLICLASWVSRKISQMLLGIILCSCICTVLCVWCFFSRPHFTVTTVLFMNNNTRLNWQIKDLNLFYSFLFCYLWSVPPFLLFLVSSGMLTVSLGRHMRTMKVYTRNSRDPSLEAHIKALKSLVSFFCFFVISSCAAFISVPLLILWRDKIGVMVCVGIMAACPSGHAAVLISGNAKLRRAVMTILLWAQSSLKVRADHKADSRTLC
Source text: The coding sequences of either the functional (PAV, GenBank accession number AY258597.1) and non-functional (AVI, GenBank accession number AF494231.1) were amplified from human genomic DNA by polymerase chain reaction.
These coding sequences were cloned in a pEFIB backbone vector in translational fusion with the coding sequence of a leader sequence corresponding to the 45 first amino acids of the rat somatostatin receptor subtype 3 [20]. The constructs were verified by sequencing. The coding sequence of RTP4 (Genbank accession number AY562238.1) was amplified from human spleen cDNA and cloned a pCI backbone vector.
The Gα16gustducin44 sequence was generated by swapping the last 132 nucleotides of the G α16 with the corresponding terminal sequence of the Gα-gustducin [21] and was cloned in a pIRES-Puro plasmid. This vector was transfected in the Peakrapid cell line (ATCC reference: CRL-2828™; purchased from LGC Standards SARL, Molsheim, FRANCE), HEK293 cell line derivative, cultured in EMEM culture medium (reference BE12-136F; Lonza, Vervier, BELGIUM) supplemented with 10% of foetal bovine serum (Sigma-Aldrich, Bornem, Belgium) and 1 μg/ml of Puromycin to allow the selection of recombinant cell populations. Cell clones expressing the Gα16gustducin44 were selected and the clone presenting the best functional response of T2R38 to phenylthicarbamide was used for the study (see below).
as §1
as §2, with “In scaling calcium imaging assays using this latter receptor, concentration-responses curves were performed and data were fitted to a four parameter logistic equation: y=min+ (max− min)/1+10 ^(logEC50−x)nH . Min and max are the minimum and the maximum values of the percentage of cell-activated surface respectively, y is the percentage of cell-activated surface at the x concentration and nH is the Hill coefficient.” left out

[2] = 1mM in DMSO 1.5%, listed as HSL-C12
[3] = 1mM in EtOH 2%, listed as HSL-C12

SMILES: NC(=S)Nc1ccccc1 [PTC, phenylthiocarbamide, reference compound]
- percentage of surface covered by activated cells ([1]; PTC 1e-7 M): 0.29% and 0.31% and 0.20%
- percentage of surface covered by activated cells ([1]; PTC 5.31987e-7 M): 0.69% and 0.47%
- percentage of surface covered by activated cells ([1]; PTC 7.66061e-7 M): 0.32% and 0.90%
- percentage of surface covered by activated cells ([1]; PTC 1e-6 M): 0.45% and 0.40% and 0.59%
- percentage of surface covered by activated cells ([1]; PTC 3.16456e-6 M): 0.30% and 0.15% and 0.74%
- percentage of surface covered by activated cells ([1]; PTC 1e-5 M): 0.11% and 0.26% and 0.07%
- percentage of surface covered by activated cells ([1]; PTC 0.0001 M): 0.06% and 0.11%
- response of empty vector transfected cells (S7_fig raw data) ([1]; PTC 0.1 mM, empty vector, experiments 1-5): 0.078% and 0.55% and 0.518% and 0.35% and 0.26%
- percentage of surface covered by activated cells ([1]; PTC 0.001 M): 0.59% and 0.12% and 0.20%
- percentage of surface covered by activated cells (T2R38; PTC 1e-7 M): 0.32% and 0.0439% and 0.30% and 0.38% and 0.0433% and 0.37%
- percentage of surface covered by activated cells (T2R38; PTC 5.31987e-7 M): 0.29% and 0.21% and 0.40% and 0.74%
- percentage of surface covered by activated cells (T2R38; PTC 7.66061e-7 M): 0.42% and 0.94% and 0.57%
- percentage of surface covered by activated cells (T2R38; PTC 1e-6 M): 0.15% and 0.33% and 0.74% and 1.61% and 0.19% and 0.16%
- percentage of surface covered by activated cells (T2R38; PTC 3.16456e-6 M): 0.91% and 1.80% and 0.81% and 1.93% and 1.12% and 1.19%
- percentage of surface covered by activated cells (T2R38; PTC 1e-5 M): 9.30% and 8.69% and 5.20% and 5.77% and 8.28% and 3.33%
- percentage of surface covered by activated cells (T2R38; PTC 0.0001 M): 16.96% and 16.52% and 12.58% and 13.19% and 14.04% and 11.95%
- response of T2R38 PAV transfected cells (S7_fig raw data) (T2R38; PTC 0.1 mM, T2R38 PAV, experiments 1-5): 30% and 29% and 24% and 17% and 23%
- percentage of surface covered by activated cells (T2R38; PTC 0.001 M): 16.18% and 8.32% and 10.10% and 7.45% and 11.65% and 8.92%
- EC50 (T2R38; mean ± SEM of n = 3 experiments): 9.7 ± 0.4 µM

SMILES: CSSC [dimethyldisulfide, dimethyl disulfide]
- percentage of surface covered by activated cells ([1]; dimethyldisulfide 0.00251189, log10[ ] -2.6): 0.21% and 0.13% and 0.27% and 1.93% and 1.05% and 0.36% and 1.26%
- agonist activity on T2R38 (in words) (T2R38): able to specifically trigger this receptor
- EC50 (T2R38): 3000 µM
- surface covered by activated cells (given as fraction) (T2R38; dimethyldisulfide 0.000251189, log10[ ] -3.6, experiment 6): 0.0087 and 0.0151
- surface covered by activated cells (given as fraction) (T2R38; dimethyldisulfide 0.000398107, log10[ ] -3.4, experiment 6): 0.0033 and 0.0066
- surface covered by activated cells (given as fraction) (T2R38; dimethyldisulfide 0.000630957, log10[ ] -3.2, experiment 6): 0.0100 and 0.0078
- surface covered by activated cells (given as fraction) (T2R38; dimethyldisulfide 0.001, log10[ ] -3, experiment 6): 0.0079 and 0.0134
- surface covered by activated cells (given as fraction) (T2R38; dimethyldisulfide 0.00158489, log10[ ] -2.8, experiment 6): 0.0310 and 0.0369
- surface covered by activated cells (given as fraction) (T2R38; dimethyldisulfide 0.00398107, log10[ ] -2.4, experiment 6): 0.1269
- logEC50 (T2R38; given in the concentration-response curve): -2.54
- Emax (% of positive control) (T2R38; percentage of the response elicited by 0.1 mM PTC): 46 % of positive control

SMILES: CCCCCCCCCC(=O)CC(=O)N[C@H]1CCOC1=O [C12HSL, N-3-oxo-dodecanoyl-L-homoserine lactone, reference compound]
- percentage of surface covered by activated cells ([1]; 0.1mM in DMSO 0.15%): 0.22% and 0.19%
- percentage of surface covered by activated cells ([1]; 0.1mM in DMSO 0.3%): 0.00881% and 0.16%
- percentage of surface covered by activated cells [1, 2]: 0.92% and 1.51% and 1.40% and 0.48% and 0.97% and 3.05%
- percentage of surface covered by activated cells [1, 3]: 0.58% and 7.03% and 2.23% and 2.90% and 5.38% and 0.28%
- agonist activity on T2R38 (in words) (T2R38): are not agonists of the receptor in our hands
- percentage of surface covered by activated cells (T2R38; 0.1mM in DMSO 0.15%): 0.46% and 1.07% and 1.52% and 0.39%
- percentage of surface covered by activated cells (T2R38; 0.1mM in DMSO 0.3%): 0.20% and 0.64% and 1.46% and 0.93%
- specific activation of the receptor (T2R38; 0.1 mM with either 0.3% or 0.15% DMSO in the incubation buffer): did not trigger any specific activation of the receptor; also recorded: did not trigger any specific activation of T2R38
- percentage of surface covered by activated cells (T2R38; [2]): 8.51% and 3.40% and 8.12% and 5.47% and 4.84% and 9.74%
- percentage of surface covered by activated cells (T2R38; [3]): 2.04% and 1.92% and 1.33% and 4.51% and 5.83% and 3.09%
- average calcium response, % of the one induced by 0.1 mM of PTC (T2R38; dissolved in DMSO 1.5% (209 mM)): 42%
- specific activation of T2R38 (T2R38): did not trigger a specific activation of T2R38
- specific activation of T2R38 (T2R38; listed as HSLC12): remained without effect on the receptor
